In patent publication US8349870B2 (priority 2008, dated 2013):
Like-named read-outs stand apart in the source and are kept apart here.

Assays:
Format in all cases: in vivo
[1] = tested on: Plasmopara viticola; test: Test A: grape downy mildew, spray after inoculation, visual disease rating (% disease control); settings: 100 = 100% disease control, 0 = no control
Text: General protocol for preparing test suspensions for Test A-C: The test compounds were first dissolved in acetone in an amount equal to 3% of the final volume and then suspended at the desired concentration (in ppm) in acetone and purified water (50/50 mix by volume) containing 250 ppm of the surfactant Trem® 014 (polyhydric alcohol esters). The resulting test suspensions were then used in Tests A-C. Spraying a 200 ppm test suspension to the point of run-off on the test plants was equivalent to a rate of 500 g/ha.
Grape seedlings were inoculated with a spore suspension of Plasmopara viticola (the causal agent of grape downy mildew) and incubated in a saturated atmosphere at 20° C. for 24 h. After a short drying period, the test suspension was sprayed to the point of run-off on the grape seedlings, which were then moved to a growth chamber at 20° C. for 5 days, after which time the grape seedling were placed back into a saturated atmosphere at 20° C. for 24 h. Upon removal, visual disease ratings were made.
Results for Tests A-C are given in Table A. In the table, a rating of 100 indicates 100% disease control and a rating of 0 indicates no disease control (relative to the controls). A dash (-) indicates no test results, “*” indicates compound was tested at 40 ppm and “**” indicates compound was tested at 10 ppm.

[2] = tested on: Phytophthora infestans; settings: tomato late blight, sprayed the day before inoculation
[3] = tested on: Phytophthora infestans; settings: tomato late blight, sprayed 17 h after inoculation
[4] = Cmpd No. unmarked, rate not stated in table (b1197 mentions a 200 ppm test suspension)

## CNC(=Nc1cc(C)ccc1C)N1CCC(c2nc(C3=NOC(c4c(F)cccc4F)C3)cs2)CC1 (stereo not drawn) [compound 35]
[1]; "*" compound tested at 40 ppm
  Test A rating (% disease control): 0%
[2]; "*" compound tested at 40 ppm
  Test B rating (% disease control): 86%
[3]; "*" compound tested at 40 ppm
  Test C rating (% disease control): 26%

## CC(C)NC(=O)N1CCC(c2nc(C3=NOC(c4ccccc4)C3)cs2)CC1 (stereo not drawn) [compound 15]
[1]; [4]
  Test A rating (% disease control): 86%
[2]; [4]
  Test B rating (% disease control): 100%
[3]; [4]
  Test C rating (% disease control): 91%

## Cc1ccc(C)c(N=C(NC#N)N2CCC(c3nc(C4=NOC(c5c(F)cccc5F)C4)cs3)CC2)c1 (stereo not drawn) [compound 42]
[1]; "*" compound tested at 40 ppm
  Test A rating (% disease control): 99%
[2]; "*" compound tested at 40 ppm
  Test B rating (% disease control): 100%
[3]; "*" compound tested at 40 ppm
  Test C rating (% disease control): 99%

## CCNC(=O)N1CCC(c2nc(C3=NOC(c4ccccc4)C3)cs2)CC1 (stereo not drawn) [compound 13]
[1]; [4]
  Test A rating (% disease control): 57%
[2]; [4]
  Test B rating (% disease control): 99%
[3]; [4]
  Test C rating (% disease control): 0%

## CCOC(=O)CNC(=O)N1CCC(c2nc(C3=NOC(c4ccccc4)C3)cs2)CC1 (stereo not drawn) [compound 18]
[1]; "*" compound tested at 40 ppm
  Test A rating (% disease control): 39%
[2]; "*" compound tested at 40 ppm
  Test B rating (% disease control): 63%
[3]; "*" compound tested at 40 ppm
  Test C rating (% disease control): 26%

## Cc1ccc(C)c(N=CN2CCC(c3nc(C4=NOC(c5ccccc5)C4)cs3)CC2)c1.Cl (stereo not drawn) [compound 21]
[1]; [4]
  Test A rating (% disease control): 0%
[2]; [4]
  Test B rating (% disease control): 95%
[3]; [4]
  Test C rating (% disease control): 0%

## O=C(NCC1CCCCC1)N1CCC(c2nc(C3=NOC(c4ccccc4)C3)cs2)CC1 (stereo not drawn) [compound 20]
[1]; "*" compound tested at 40 ppm
  Test A rating (% disease control): 95%
[2]; "*" compound tested at 40 ppm
  Test B rating (% disease control): 100%
[3]; "*" compound tested at 40 ppm
  Test C rating (% disease control): 93%

## O=C(COCCC(F)(F)F)N1CCC(c2nc(C3=NOC(c4c(F)cccc4F)C3)cs2)CC1 (stereo not drawn) [compound 75]
[1]; "**" compound tested at 10 ppm
  Test A rating (% disease control): 100%
[2]; "**" compound tested at 10 ppm
  Test B rating (% disease control): 100%
[3]; "**" compound tested at 10 ppm
  Test C rating (% disease control): 97%

## Cc1cc(C(F)(F)F)nn1C(=O)C(=O)N1CCC(c2nc(C3=NOC(c4ccccc4F)C3)cs2)CC1 (stereo not drawn) [compound 41]
[1]; "*" compound tested at 40 ppm
  Test A rating (% disease control): 17%
[2]; "*" compound tested at 40 ppm
  Test B rating (% disease control): 26%
[3]; "*" compound tested at 40 ppm
  Test C rating (% disease control): 0%

## Cc1cc(C)c(C(=O)C(=O)N2CCC(c3nc(C4=NOC(c5ccccc5F)C4)cs3)CC2)c(C)c1 (stereo not drawn) [compound 51]
[1]; "*" compound tested at 40 ppm
  Test A rating (% disease control): 0%
[2]; "*" compound tested at 40 ppm
  Test B rating (% disease control): 52%
[3]; "*" compound tested at 40 ppm
  Test C rating (% disease control): 0%

## O=C(C(=O)N1CCC(c2nc(C3=NOC(c4ccccc4F)C3)cs2)CC1)c1ccco1 (stereo not drawn) [compound 47]
[1]; "*" compound tested at 40 ppm
  Test A rating (% disease control): 85%
[2]; "*" compound tested at 40 ppm
  Test B rating (% disease control): 33%
[3]; "*" compound tested at 40 ppm
  Test C rating (% disease control): 0%

## Cc1ccc(C)c(N=C(N)N2CCC(c3nc(C4=NOC(c5ccccc5)C4)cs3)CC2)c1 (stereo not drawn) [compound 23]
[1]; "**" compound tested at 10 ppm
  Test A rating (% disease control): 79%
[2]; "**" compound tested at 10 ppm
  Test B rating (% disease control): 100%
[3]; "**" compound tested at 10 ppm
  Test C rating (% disease control): 33%

## 4-[4-(4,5-dihydro-5-phenyl-3-isoxazolyl)-2-thiazolyl]-N-2-propen-1-yl]-1-piperidinecarbothioamide [Example 5]
[1]; "*" compound tested at 40 ppm
  Test A rating (% disease control): 83%
[2]; "*" compound tested at 40 ppm
  Test B rating (% disease control): 99%
[3]; "*" compound tested at 40 ppm
  Test C rating (% disease control): 73%

## Cc1cc(C(F)(F)F)nn1C(=O)C(=O)N1CCC(c2nc(C3=NOC(c4c(F)cccc4F)C3)cs2)CC1 (stereo not drawn) [compound 43]
[1]; "*" compound tested at 40 ppm
  Test A rating (% disease control): 0%
[2]; "*" compound tested at 40 ppm
  Test B rating (% disease control): 25%
[3]; "*" compound tested at 40 ppm
  Test C rating (% disease control): 0%

## O=C(CCOCC(F)(F)F)N1CCC(c2nc(C3=NOC(c4c(F)cccc4F)C3)cs2)CC1 (stereo not drawn) [compound 77]
[1]; "**" compound tested at 10 ppm
  Test A rating (% disease control): 100%
[2]; "**" compound tested at 10 ppm
  Test B rating (% disease control): 100%
[3]; "**" compound tested at 10 ppm
  Test C rating (% disease control): 99%

## Cc1ccc(C)c(N=C(N(C)C)N2CCC(c3nc(C4=NOC(c5ccccc5)C4)cs3)CC2)c1 (stereo not drawn) [compound 24]
[1]; "*" compound tested at 40 ppm
  Test A rating (% disease control): 79%
[2]; "*" compound tested at 40 ppm
  Test B rating (% disease control): 97%
[3]; "*" compound tested at 40 ppm
  Test C rating (% disease control): 39%

## CCOC(=Nc1cc(C)ccc1C)N1CCC(c2nc(C3=NOC(c4ccccc4)C3)cs2)CC1 (stereo not drawn) [compound 29]
[1]; "*" compound tested at 40 ppm
  Test A rating (% disease control): 92%
[2]; "*" compound tested at 40 ppm
  Test B rating (% disease control): 99%
[3]; "*" compound tested at 40 ppm
  Test C rating (% disease control): 80%

## C#CCCC(=O)N1CCC(c2nc(C3=NOC(c4ccccc4F)C3)cs2)CC1 (stereo not drawn) [Example 8, 1-[4-[4-[4,5-dihydro-5-(2-fluorophenyl)-3-isoxazolyl]-2-thiazolyl]-1-piperidinyl]-4-pentyn-1-one]
[1]; [4]
  Test A rating (% disease control): 46%
[2]; [4]
  Test B rating (% disease control): 40%
[3]; [4]
  Test C rating (% disease control): 0%

## CSC(=Nc1cc(C)ccc1C)N1CCC(c2nc(C3=NOC(c4c(F)cccc4F)C3)cs2)CC1.I (stereo not drawn) [compound 26]
[1]; "*" compound tested at 40 ppm
  Test A rating (% disease control): 99%
[2]; "*" compound tested at 40 ppm
  Test B rating (% disease control): 100%
[3]; "*" compound tested at 40 ppm
  Test C rating (% disease control): 93%

## CCCC(=O)C(=O)N1CCC(c2nc(C3=NOC(c4c(F)cccc4F)C3)cs2)CC1 (stereo not drawn) [compound 67]
[1]; "*" compound tested at 40 ppm
  Test A rating (% disease control): 100%
[2]; "*" compound tested at 40 ppm
  Test B rating (% disease control): 100%
[3]; "*" compound tested at 40 ppm
  Test C rating (% disease control): 99%

## CNC(=Nc1cc(C)ccc1C)N1CCC(c2nc(C3=NOC(c4ccccc4)C3)cs2)CC1 (stereo not drawn) [compound 28]
[1]; "*" compound tested at 40 ppm
  Test A rating (% disease control): 43%
[2]; "*" compound tested at 40 ppm
  Test B rating (% disease control): 95%
[3]; "*" compound tested at 40 ppm
  Test C rating (% disease control): 0%

## Cc1ccc(C)c(N=CN2CCC(c3nc(C4=NOC(c5ccccc5)C4)cs3)CC2)c1 (stereo not drawn) [Example 2, N-[[4-[4-(4,5-dihydro-5-phenyl-3-isoxazolyl)-2-thiazolyl]-1-piperidinyl]methylene]-2,5-dimethylbenzenamine]
[1]; [4]
  Test A rating (% disease control): 17%
[2]; [4]
  Test B rating (% disease control): 88%
[3]; [4]
  Test C rating (% disease control): 0%

## CCCCCCC(=O)N1CCC(c2nc(C3=NOC(c4c(F)cccc4F)C3)cs2)CC1 (stereo not drawn) [compound 73]
[1]; "*" compound tested at 40 ppm
  Test A rating (% disease control): 99%
[2]; "*" compound tested at 40 ppm
  Test B rating (% disease control): 100%
[3]; "*" compound tested at 40 ppm
  Test C rating (% disease control): 99%

## Cc1ccc(C)c(N=C(N2CCOCC2)N2CCC(c3nc(C4=NOC(c5ccccc5)C4)cs3)CC2)c1 (stereo not drawn) [compound 30]
[1]; "*" compound tested at 40 ppm
  Test A rating (% disease control): 58%
[2]; "*" compound tested at 40 ppm
  Test B rating (% disease control): 64%
[3]; "*" compound tested at 40 ppm
  Test C rating (% disease control): 17%

## CC(C)C(O)C(=O)N1CCC(c2nc(C3=NOC(c4c(F)cccc4F)C3)cs2)CC1 (mixture of isomers) [compound 55]
[1]; "**" compound tested at 10 ppm
  Test A rating (% disease control): 10%
[2]; "**" compound tested at 10 ppm
  Test B rating (% disease control): 100%
[3]; "**" compound tested at 10 ppm
  Test C rating (% disease control): 99%

## CS(=O)(=O)CC(=O)N1CCC(c2nc(C3=NOC(c4c(F)cccc4F)C3)cs2)CC1 (stereo not drawn) [compound 62]
[1]; "*" compound tested at 40 ppm
  Test A rating (% disease control): 99%
[2]; "*" compound tested at 40 ppm
  Test B rating (% disease control): 99%
[3]; "*" compound tested at 40 ppm
  Test C rating (% disease control): 95%

## CCC(C)C(=O)C(=O)N1CCC(c2nc(C3=NOC(c4c(F)cccc4F)C3)cs2)CC1 (stereo not drawn) [compound 70]
[1]; "*" compound tested at 40 ppm
  Test A rating (% disease control): 100%
[2]; "*" compound tested at 40 ppm
  Test B rating (% disease control): 100%
[3]; "*" compound tested at 40 ppm
  Test C rating (% disease control): 88%

## Cc1ccc(C)c(N=C(NO)N2CCC(c3nc(C4=NOC(c5c(F)cccc5F)C4)cs3)CC2)c1 (stereo not drawn) [compound 25]
[1]; "*" compound tested at 40 ppm
  Test A rating (% disease control): 100%
[2]; "*" compound tested at 40 ppm
  Test B rating (% disease control): 100%
[3]; "*" compound tested at 40 ppm
  Test C rating (% disease control): 99%

## CONC(=Nc1cc(C)ccc1C)N1CCC(c2nc(C3=NOC(c4c(F)cccc4F)C3)cs2)CC1 (stereo not drawn) [compound 34]
[1]; "*" compound tested at 40 ppm
  Test A rating (% disease control): 100%
[2]; "*" compound tested at 40 ppm
  Test B rating (% disease control): 100%
[3]; "*" compound tested at 40 ppm
  Test C rating (% disease control): 97%

## CC(C)C(=O)C(=O)N1CCC(c2nc(C3=NOC(c4c(F)cccc4F)C3)cs2)CC1 (stereo not drawn) [compound 68]
[1]; "*" compound tested at 40 ppm
  Test A rating (% disease control): 99%
[2]; "*" compound tested at 40 ppm
  Test B rating (% disease control): 100%
[3]; "*" compound tested at 40 ppm
  Test C rating (% disease control): 93%

## Cc1ccc(C)c(C(=O)NC(=O)N2CCC(c3nc(C4=NOC(c5ccccc5F)C4)cs3)CC2)c1 (stereo not drawn) [compound 37]
[1]; "*" compound tested at 40 ppm
  Test A rating (% disease control): 0%
[2]; "*" compound tested at 40 ppm
  Test B rating (% disease control): 63%
[3]; "*" compound tested at 40 ppm
  Test C rating (% disease control): 0%
